{
  "source": "patent US20230126533A1",
  "about": "“Method of treating an inflammatory disorder” (The University of Miami, priority 2020, published 2023)",
  "key": {"[1]": {"system": "C57B1/6 mice challenged with Mycobacterium abscessus (MAB) microparticles", "assay": "Lung inflammation score in mouse model of pulmonary sarcoidosis", "format": "in vivo", "conditions": "AVR 5 microgram per mouse daily subcutaneous, after 3 weeks, vs saline granuloma group", "procedure": "(§1) A mouse model of pulmonary sarcoidosis was previously established in C57B1/6 mice. Microparticles (Mycobacterium abscessus) developed in-house were administered intratracheally. The tongue was pulled out with a small spatula and microparticle was inserted into the trachea using a 20 G angio-catheter tube and advanced to main bronchus until reach to resistant. After tube placement, microparticles were administered (first dose of 50 μL=5×10^8, followed by up to 3 doses of 20 μL=2×10^8 of CFU of M. abscessus). The control group received only 20 μL PBS intratracheally.\nThe lung tissue was fixed in formalin and cut for histology. Developed noncaseating granuloma in the mouse lung was visualized with H&E staining and immunohistochemistry staining for CD68 macrophage marker, CD4 marker, and PD-L1.\n(§2) One sarcoidosis group received AVR (“AVR group”), administered via subcutaneous injection, 5 microgram per mouse daily. Another sarcoidosis group received steroid treatment ([…], the current first line treatment for sarcoidosis) (“solu-medrol group”), and the final group received only saline (“granuloma group”). After 3 weeks mice were sacrificed and graded the inflammation in the lung samples.\nTwo mg of AVR-352 was added to 0.5 ml DMSO. After dissolving, 1,2-propanediol 10% was added to reach a volume of 40 ml. The fluid was sterilized by passing through a 0.22-micron filter. […]"}, "[2]": {"system": "iNOS", "assay": "iNOS expression in lungs of MAB microparticle challenged mice", "format": "in vivo", "conditions": "mouse models of Example 3; vs MAB microparticle alone", "procedure": "as §1, §2\nInducible Nitric oxide synthase (iNOS) plays important role in immune response to microbes. NO can control the production of Th1 immune responses by modulating IL-12 expression. NO plays an important inhibitory role in Th17 differentiation. […] To test whether AVR reduces iNOS expression in an inflammation model, lungs from mouse models described in Example 3 were evaluated for iNOS."}, "[3]": {"system": "CD209f gene", "assay": "RNASeq gene expression in lungs of MAB microparticle challenged mice", "format": "in vivo, mouse", "conditions": "challenged mice with AVR treatment vs challenged mice", "procedure": "as §1, §2\nWhole gene expression was analyzed using RNASeq. Harvested lung from control, challenged, and treatment groups generated as described in Example 3 were used. RNA was isolated and RNASeq was performed at Genomic center at University of Miami. […] A heatmap was generated for the differentiating genes between challenged mice with MAB microparticles versus challenged mice with AVR treatment."}, "[4]": {"system": "IL2, OAS1 and ISG15", "assay": "Cytokine expression (Western blot) in lungs of MAB microparticle challenged mice", "format": "in vivo", "conditions": "mouse models of Example 3; vs MAB microparticle challenge", "procedure": "as §1, §2\nThe effects of AVR on IL2 (T helper 1 cytokine) and Type I interferon cytokines (OAS1 and ISG15) were measured and compared in the lungs of mice models prepared as set forth in Example 3."}, "[5]": {"system": "PBMC of subjects with confirmed pulmonary sarcoidosis", "assay": "Apoptosis-related proteins in ex vivo sarcoidosis granuloma model (multiplex Elisa)", "format": "cell-based, human", "conditions": "PBMC challenged with MAB microparticles 10:1, 48 h; for active caspase 3 concentration: 1 microM AVR", "source_text": "GHRHR antagonists induce apoptosis in cancer cells. The effects of GHRHR antagonist in immune cells still remains unclear. The ability of AVR to induce apoptosis in an ex vivo sarcoidosis model using PBMC of five subjects with confirmed pulmonary sarcoidosis was characterized.\nPBMC samples were grouped as “control” (not challenged), “particles” (granuloma), “particles+AVR” (granuloma treated with 1 microM AVR), and “particles+Solu” (granuloma treated with methyl prednisolone as positive control). The “particle” groups were challenged with equal to 10:1 treatment with MAB microparticles. Media from all groups were removed 48 h after of treatments. Survivn, MCL-1/Bak Dimer, BClxL/Bak dimer, and active caspase 3 concentrations were measured using multiplex Elisa instrument and compared using t-test."}},
  "note": "Starred links: 1 amine or outer side, 2 acyl side, 3 side chain; linkers in the order of their positions; H or OH if unused. Non-standard residues stand in square brackets, D forms with d. *: point of attachment. Tyr(Me) = O-methyl-tyrosine, COc1ccc(C[C@H](N[*:1])C(=O)[*:2])cc1; Phenylacetyl(2,3,4,5,6-F5) = O=C(Cc1c(F)c(F)c(F)c(F)c1F)*; Phe(F5) = N[C@@H](Cc1c(F)c(F)c(F)c(F)c1F)C(=O)O; hArg = N=C(N)NCCCC[C@H](N)C(=O)O; 12Ado = NCCCCCCCCCCCC(=O)O; Nle = CCCC[C@H](N)C(=O)O; Abu = CC[C@H](N)C(=O)O",
  "data": [
    {"compound": "5FPhAC-Ada-Tyr-DArg-Asp-Ala-Ile-5FPhe-Thr-Ala-Har-Tyr(Me)-Arg-Lys-Val-Leu-Abu-Gln-Leu-Ser-Ala-Arg-Lys-Leu-Leu-Gln-Asp-Ile-Nle-DArg-Har-Ada-NH2 ({Phenylacetyl(2,3,4,5,6-F5)-12Ado}-Y[dR]DAI[Phe(F5)]TA[hArg][Tyr(Me)]RKVL[Abu]QLSARKLLQDI[Nle][dR][hArg]-{12Ado-NH2}; SMILES CCCC[C@H](NC(=O)[C@@H](NC(=O)[C@H](CC(=O)O)NC(=O)[C@H](CCC(N)=O)NC(=O)[C@H](CC(C)C)NC(=O)[C@H](CC(C)C)NC(=O)[C@H](CCCCN)NC(=O)[C@H](CCCNC(=N)N)NC(=O)[C@H](C)NC(=O)[C@H](CO)NC(=O)[C@H](CC(C)C)NC(=O)[C@H](CCC(N)=O)NC(=O)[C@H](CC)NC(=O)[C@H](CC(C)C)NC(=O)[C@@H](NC(=O)[C@H](CCCCN)NC(=O)[C@H](CCCNC(=N)N)NC(=O)[C@H](Cc1ccc(OC)cc1)NC(=O)[C@H](CCCCNC(=N)N)NC(=O)[C@H](C)NC(=O)[C@@H](NC(=O)[C@H](Cc1c(F)c(F)c(F)c(F)c1F)NC(=O)[C@@H](NC(=O)[C@H](C)NC(=O)[C@H](CC(=O)O)NC(=O)[C@@H](CCCNC(=N)N)NC(=O)[C@H](Cc1ccc(O)cc1)NC(=O)CCCCCCCCCCCNC(=O)Cc1c(F)c(F)c(F)c(F)c1F)[C@@H](C)CC)[C@@H](C)O)C(C)C)[C@@H](C)CC)C(=O)N[C@H](CCCNC(=N)N)C(=O)N[C@@H](CCCCNC(=N)N)C(=O)NCCCCCCCCCCCC(N)=O) [AVR]", "values": [
      {"measurement": "lung inflammation score (percentage of lung inflammation)", "setting": "[1]", "value": "significantly lower inflammation scores"},
      {"measurement": "iNOS expression in the challenged lung", "setting": "[2]", "value": "significantly reduced MAB-induced increased iNOS expression"},
      {"measurement": "CD209f gene expression in lung", "setting": "[3]", "value": "significantly downregulated"},
      {"measurement": "IL2 expression in lung", "setting": "[4]", "value": "reduced significantly"},
      {"measurement": "ISG15 expression in lung", "setting": "[4]", "value": "reduced significantly"},
      {"measurement": "OAS1 expression in lung", "setting": "[4]", "value": "reduced significantly"},
      {"measurement": "active caspase 3 concentration", "setting": "[5]", "value": "significantly increased"}
    ]},
    {"compound": "C[C@H]1C[C@@H]2[C@H]([C@@H](O)C[C@@]3(C)[C@H]2CC[C@]3(O)C(=O)COC(=O)CCC(=O)[O-])[C@@]2(C)C=CC(=O)C=C12.[Na+]", "note": "[Solu-Medrol, reference compound]", "values": [
      {"measurement": "lung inflammation score (percentage of lung inflammation)", "setting": "[1]", "value": "less effect than AVR"},
      {"measurement": "iNOS expression in the challenged lung", "setting": "[2]", "value": "reduced MAB-induced increased iNOS expression"},
      {"measurement": "active caspase 3 concentration", "setting": "[5]", "value": "significantly increased"},
      {"measurement": "MCL-1/Bak dimer concentration", "setting": "[5]", "value": "significantly reduced"}
    ]}
  ]
}
